Values joined by “and” are separate entries in the source; they are usually repeats but may differ in a detail not shown here. Identical values can stand only once.
Experiments:
Type in all cases: physicochemical
[1] = Dye diffusion, gel pad test; settings: 0.1 M KOH, 1.3×10^-3 M dye
From the text: (§1) The released dyes in Table I were also subjected to the conditions of two different dye diffusion tests. One, the "solution test" involved dissolving the dye in a viscous composition and transferring it through a receiving element which contains an opaque and reflecting layer in addition to the mordant layer. The other, a "gel pad test" involved imbibing the dye from solution into a thick gelatin layer, and then transferring it by direct lamination to the same receiving element which had been preswollen by soaking 5 minutes in a solution of […].
(§2) A transparent poly(ethylene terephthalate) film support coated with
(§3) (3) an overcoat layer of gelatin (4.3).
A donor element, containing a thick pad of deionized acid-processed gelatin (26 g/m^2) hardened with 2 percent bis(vinylsulfonylmethyl)ether, was imbibed with a solution of 0.1 M in potassium hydroxide and 1.3×10^-3 M in dye. The pad was soaked to full penetration, surface wiped, and then laminated in direct contact to the above receiving element which had been presoaked for 5 minutes at 0.1 M KOH. The t-1/2 of dye transfer was obtained as in the solution test.

[2] = Dye diffusion, solution test; settings: pH 13.4, 0.0025 M dye
From the text: as §1, §2, §3
The viscous composition was prepared from 46.2 g potassium hydroxide and 54 g carboxymethylcellulose dissolved in 1200 ml water. […] Measurement of the rate of dye diffusion was commenced at the point at which half of the laminate had passed through the rollers. The appearance of dye on the mordant was measured at λmax as diffuse reflection density vs. time. The reflection density was converted to transmission density by computer with the aid of a mathematical relation derived from a previous calibration. A plot of transmission density, which is proportional to concentration vs. time, was derived; and the value of t-1/2 of dye transfer, the time in seconds required to obtain one-half of the maximum transmission density, calculated.

[3] = Comparative spectra on mordanted strips (Example 2); settings: 2:1 nickel complex on mordanted strip; for HBW: band width at half Dmax; for λmax: wavelength(s) at actual Dmax
From the text: The absorption envelope of each of the metallized dyes is described by (1) the wavelength(s), λmax, at the actual Dmax, (2) the λ1/2 which is the mean of the wavelength limits of the absorption envelope at half the maximum density, and (3) the halfband width (HBW) which is the band width at half the Dmax. A narrow HBW generally designates a purer hue.

[4] = Transmission spectra of Ni-dye complexes on mordanted receiving element (Example 1); settings: pH 7.0 buffer
[5] = Spectra of Ni-dye complexes in solution; settings: 3:1 dioxane:water, pH 7, excess nickel ion; for Solution HBW of Ni-dye complex: half band width
From the text: The receiver was removed from the dye solution, washed in distilled water, placed in a pH 7.0 buffer solution and dried. Transmission spectra obtained on each sample of the mordanted dyes were normalized by computer to a density of 1.0. The characteristic wavelength of the dye, λ1/2 in nm, is the mean of the wavelength limits of the absorption envelope at half the maximum density. The HBW ("half band width") in nm is the range or distance between those limits. The dye solution spectrum in 3:1 dioxane:water at pH 7 in the presence of excess nickel ion is also given.

[6] = Light stability (percent fade after HID xenon arc irradiation); settings: 10 days HID 6000 W xenon arc, 50,000 lux, Wratten 2B filter, approx. 38° C.
From the text: An alternative receiving element was used with the premetallized dye-complexes. It comprised a poly(ethylene terephthalate) film support having thereon a layer of gelatin (1.1 g/m^2) and a mordant layer of poly(styrene-co-1-vinylimidazole-co-3-benzyl-1-vinylimidazolium chloride (50:40:10) (4.5 g/m^2) and gelatin (2.2 g/m^2).
The above receiving elements at pH 7 were then subjected to 10 days irradiation by a high intensity daylight (HID), 6000 W Xenon arc lamp, the sample receiving 50,000 lux through a Wratten 2B (ultraviolet) filter at approximately 38° C. and low humidity. The percent fade represents the loss in density at λmax after irradiation.

[7] = Extinction in solution with Ni2+ (synthesis examples); settings: 3:1 dioxane-pH 6 buffer + excess Ni^2+
Protocol: To a solution of 5.5 g (12.1 mmol) Compound E in 200 ml tetrahydrofuran, 100 ml pyridine and 4.8 g (37.2 mmol) N,N-diisopropylethylamine was added 3.0 g (3.17 mmol) 3,6-bis(1-p-t-butylphenylethyl)-2,5-bis(N-n-dodecylchloroformamidomethyl)benzoquinone (see U.S. Pat. No. 4,204,870, Col. 31). After stirring for 1 hour, an additional 2.5 g (2.64 mmol) of the acid chloride is added and the reaction stirred 28 hours at room temperature. The crude reaction mixture was concentrated to ca. 100 ml in vacuo at 40° C. and the residue was partitioned between ethyl acetate and 3 N HCl. The layers were separated, the organic phase washed with 3 N HCl (until washings were acidic), water and saturated sodium chloride solution. After drying (MgSO4) the organic phase was evaporated in vacuo and the residue recrystallized twice from 350-400 ml ethanol. Yield 7.5 g (72 percent) of yellow solid: ε^550 =13.0×10^4 (3:1 dioxane-pH 6 buffer+excess Ni^2+).
A solution of 5.0 g (31.4 mmol) quinoline-5,8-quinone [T. Urbanski and S. Krzyzanowski, Roczniki Chem., 27, 390 (1953); Chem. Abstr., 49, 1041b (1955)] in 50 ml ethyl alcohol and 100 ml tetrahydrofuran was chilled to <5° C. Concentrated HCl (1 ml) and a cold slurry of 10.0 g (31.8 mmol) 3-chloro-5-(m-hydroxyphenylsulfamoyl)-7-pyridylhydrazine in 100 ml ethyl alcohol/0.5 ml concentrated HCl were added in that order. […]

[8] = nickel sulfate/gelatin + poly(4-vinylpyridine)/gelatin mordant receiver, normalized to density 1.0
[9] = premetallized compound, alternative receiving element

| Compound | Dye diffusion t1/2, Gel Pad [1] | Dye diffusion t1/2, Soln. [2] | λ1/2 [3] | HBW [3] | λmax [3] | Mordant HBW of Ni-dye complex [4, 8] | Mordant λ1/2 of Ni-dye complex [4, 8] | Solution λ1/2 of Ni-dye complex [5] | Solution HBW of Ni-dye complex [5] | % Fade (loss in density at λmax) ([6]; low humidity, pH 7) | also measured |
| --- | --- | --- | --- | --- | --- | --- | --- | --- | --- | --- | --- |
| 2:1 nickel complex of 2-(2-pyridylazo)-4-sulfamoyl-1-naphthol [Control Dye 1] | 281 s | 49 s | 537 nm | 101 nm | 553 nm and 567 nm |  |  |  |  |  |  |
| 2:1 nickel complex of 6-(2-carboxy-4-chlorphenylazo)-2,3-pyridinediol [Control Dye 3] |  |  | 545 nm | 86 nm | 555 nm |  |  |  |  |  |  |
| NS(=O)(=O)c1cccc(NS(=O)(=O)c2cnc(N=Nc3ccc(O)c4cccnc34)c(Cl)c2)c1 [A] | 183 s | 41 s |  |  |  | 76 nm | 553 nm | 548 nm | 70 nm | 2% | Mordant HBW of Ni-dye complex [4, 9]: 85 nm; Mordant λ1/2 of Ni-dye complex [4, 9]: 555 nm; Dye diffusion t1/2, Gel Pad ([1]; listed as A'): 235 s; Solution HBW of Ni-dye complex ([5]; listed as A'): 68 nm; Solution λ1/2 of Ni-dye complex ([5]; listed as A'): 545 nm; % Fade (loss in density at λmax) [6, 9]: 3% |
| NS(=O)(=O)c1cnc(N=Nc2ccc(O)c3cccnc23)c(Cl)c1 [B] | 108 s | 31 s |  |  |  | 67 nm | 545 nm | 543 nm | 65 nm | 0% | Mordant HBW of Ni-dye complex [4, 9]: 71 nm; Mordant λ1/2 of Ni-dye complex [4, 9]: 546 nm; Dye diffusion t1/2, Gel Pad ([1]; listed as B'): 161 s; Solution HBW of Ni-dye complex ([5]; listed as B'): 68 nm; Solution λ1/2 of Ni-dye complex ([5]; listed as B'): 544 nm; % Fade (loss in density at λmax) [6, 9]: 4% |
| CCCCCCCCCCCCN(CC1=C(C(C)c2ccc(C(C)(C)C)cc2)C(=O)C(CN(CCCCCCCCCCCC)C(=O)Oc2cccc(NS(=O)(=O)c3cnc(N=Nc4ccc(O)c5cccnc45)c(Cl)c3)c2)=C(C(C)c2ccc(C(C)(C)C)cc2)C1=O)C(=O)Oc1cccc(NS(=O)(=O)c2cnc(N=Nc3ccc(O)c4cccnc34)c(Cl)c2)c1 (centres unmarked) [Compound 3] |  |  |  |  |  |  |  |  |  |  | ε^550 [7]: 13.0×10^4 |
| COc1cc(S(=O)(=O)NC(C)(C)C)cnc1N=Nc1ccc(O)c2cccnc12 [Compound C] |  | 37 s | 545 nm | 67 nm | 560 nm | 82 nm | 563 nm | 560 nm | 79 nm |  |  |
| CC(C)NS(=O)(=O)c1cnc(N=Nc2ccc(O)c3cccnc23)c(Cl)c1 [Compound D] |  | 44 s |  |  |  | 66 nm | 547 nm | 543 nm | 68 nm |  |  |
| CN(c1ccccc1)c1ccc(N=Nc2ccc(S(N)(=O)=O)cn2)c([O-])c1.CN(c1ccccc1)c1ccc(N=Nc2ccc(S(N)(=O)=O)cn2)c([O-])c1.[Ni+2] [Control Dye 2, 2:1 nickel complex of 2-(5-sulfamoyl-2-pyridylazo)-5-(N-methylanilino)phenol] | 265 s | 45 s | 540 nm | 116 nm | 540 nm and 572 nm |  |  |  |  |  |  |
| CN(c1cccc(O)c1)S(=O)(=O)c1cnc(N=Nc2ccc(O)c3cccnc23)c(Cl)c1 [F] |  | 69 s |  |  |  | 66 nm | 546 nm | 543 nm | 68 nm | 0% |  |
| O=S(=O)(Nc1ccccc1)c1cnc(N=Nc2ccc(O)c3cccnc23)c(Cl)c1 [G] |  | 81 s |  |  |  | 70 nm | 548 nm | 542 nm | 65 nm | 0% |  |
| CC(C)NS(=O)(=O)c1cnc(N=Nc2ccc(O)c3cc(C(=O)Nc4cccc(O)c4)c(Cl)nc23)c(Cl)c1 [H] |  | 49 s |  |  |  | 72 nm | 549 nm | 548 nm | 63 nm | 7% |  |
| COc1cc(S(=O)(=O)Nc2cccc(O)c2)cnc1N=Nc1ccc(O)c2cccnc12 [J] |  | 40 s |  |  |  | 87 nm | 568 nm | 559 nm | 78 nm | 0% |  |
